Experiment: Affinity for bacterial ZipA-FtsZ protein-protein interaction
Parameters: species or system Escherichia coli

Row | Kd | SMILES
1 | 73.9 µM | CC(=O)Nc1cccc(-c2ccc3nnc(-c4ccccc4)n3n2)c1
2 | 85.1 µM | CC(=O)N(C)c1cccc(-c2ccc3nnc(-c4cccnc4)n3n2)c1
